Results taken from patent US20040110637A1, “Method of safening crops using isoxazoline carboxylates” (priority 2001, published 2004).

Legend:
Assay type in all cases: in vivo
[1] = tested on: ZEAMA = Zea mays (maize), variety Lorenzo; assay: Corn seed treatment with safener, then pre-emergence herbicide H1 (isoxaflutole); visual crop injury; conditions: safener seed treatment 0.1 g a.i./kg seed + Herbicide H1 pre-emergent 100 g a.i./ha
Description: (§1) The number of crop seeds that would be needed for each safener rate was calculated. Based on the weight of 100 seeds, sufficient seeds were weighed into screw top glass bottles approximately twice the volume of the seeds.
(§2) The prospective safeners were formulated as wettable powders or water dispersible granules. These formulations were weighed out so that the required rates (g a.i./kg seed) would be obtained. The samples were added to the seeds in the bottles and then sufficient water added to produce a slurry. The bottles were capped and then placed in an overhead shaker (set at medium speed for up to 1 hour) so that the seeds were evenly coated with the slurry. The bottles were uncapped and the seeds used in the pre- or post-emergence tests as described in sections 1.2 and 1.3.
(§3) As an alternative seed treatment method, active ingredient of the prospective safeners was weighed and dissolved in a solvent (e.g. acetone) and added to the seeds in the bottles. […]
(§4) In tests in which larger quantities of seeds required treatment, the prospective safeners, either as formulated samples in water or as active ingredient dissolved in solvent were applied to seeds using a mini-rotostat apparatus. […]
(§5) Corn seeds were treated according to example 1.1. […] After 3 to 4 weeks the results were visually scored in comparison with control plants (without seed treatment and herbicide treatment).

[2] = tested on: HORVS = Hordeum vulgare (barley), variety Boroness; assay: Barley seed treatment with safener, then pre-emergence herbicide H2 (metolachlor); visual crop injury; conditions: for Safener effect in % reduction in crop injury: HORVS
Description: as §1, §2
(§6) As an alternative seed treatment method, active ingredient of the prospective safeners was weighed and dissolved in a solvent (e.g. acetone) and added to the seeds in the bottles. The solvent type and volume was selected based on prior experience so that it would have no negative impact on seed germination or subsequent plant growth. After shaking for up to 1 hour (overhead shaker) the seeds were spread out on paper in a fume cabinet to allow the remaining solvent to evaporate. The seeds were then used in the pre- or post-emergence tests as described in sections 1.2 and 1.3.
(§7) In tests in which larger quantities of seeds required treatment, the prospective safeners, either as formulated samples in water or as active ingredient dissolved in solvent were applied to seeds using a mini-rotostat apparatus. The seeds were allowed to dry for a short time before being used in the pre- or post-emergence tests as described in sections 1.2 and 1.3.
(§8) The safener treated seeds and untreated comparison seeds were sown into 7 to 13 cm round pots in a sandy loam soil and covered with approximately 0.5 to 1 cm of a 1 to 1 mix of sandy loam soil and sand. Herbicidal substances, as liquid (e.g. Emulsifiable concentrates) or dry (e.g. wettable powder) formulations, were diluted to the required concentrations in deionised water and applied to the soil surface using a track sprayer calibrated to deliver 300 to 800 litres of spray solution per hectare.
(§9) The pots were placed under good growing conditions in a glasshouse and a visual assessment of herbicidal effects made after 3 to 4 weeks after herbicide application. Assessment was on a percentage basis in comparison with untreated control plants (0%=no injury, 100%=complete kill).
Wheat or barley seeds were treated according to example 1.1. […] After 3 to 4 weeks the results were visually scored in comparison with control plants (without seed treatment and herbicide treatment).

[3] = tested on: corn (variety Dea); assay: Corn seed treatment with safener, then post-emergence herbicide H3 (diflufenzopyr + dicamba sodium salts); visual crop injury
Description: as §1, §2, §3, §4, §5

[4] = tested on: TRZAS, Triticum aestivum (wheat), variety Ralle; assay: Wheat seed treatment with safener, then pre-emergence herbicide H2 (metolachlor); visual crop injury; conditions: for Safener effect in % reduction in crop injury: TRZAS
Description: as §1, §2, §6, §7, §8, §9
Wheat or barley seeds were treated according to example 1.1. After sowing the herbicide was applied pre-emergent on the soil surface as described in example 1.2. After 3 to 4 weeks the results were visually scored in comparison with control plants (without seed treatment and herbicide treatment).

[5] = safener seed treatment 0.5 g a.i./kg seed + Herbicide H2 pre-emergent 700 g a.i./ha
[6] = safener seed treatment 1 g a.i./kg seed + Herbicide H2 pre-emergent 700 g a.i./ha
[7] = safener seed treatment 2 g a.i./kg seed + Herbicide H2 pre-emergent 700 g a.i./ha

SMILES: CCOC(=O)C1=NOC(c2ccccc2)(c2ccccc2)C1 [(lb)]
- Safener effect in % reduction in crop injury ([1]; ZEAMA): 71%
- % injury to ZEAMA ([1]; after 3 to 4 weeks): 10%
- % injury to HORVS [2, 5]: 0%
- Safener effect in % reduction in crop injury [2, 5]: 100%
- % injury to HORVS [2, 6]: 0%
- Safener effect in % reduction in crop injury [2, 6]: 100%
- % injury to corn (variety Dea) ([3]; safener seed treatment 0.01 g a.i./kg seed + Herbicide H3 500 g a.i./ha (head: pre-emergent; text: post-emergent at 2 to 3-leaf stage)): 10%
- Safener effect in % reduction in crop injury ([3]; safener seed treatment 0.01 g a.i./kg seed + Herbicide H3 500 g a.i./ha, corn variety Dea): 57%
- % injury to TRZAS [4, 5]: 10%
- Safener effect in % reduction in crop injury [4, 5]: 86%
- % injury to TRZAS [4, 6]: 20%
- Safener effect in % reduction in crop injury [4, 6]: 73%
- % injury to TRZAS [4, 7]: 15%
- Safener effect in % reduction in crop injury [4, 7]: 79%
